Converted amounts (≈) assume the structure as drawn. Bounds are passed on as bounds.

For the assay, the system named is Mycobacterium tuberculosis. As to the kind of experiment: Antimycobacterial activity against quinolone-resistant multidrug-resistant Mycobacterium tuberculosis after 21 days by agar dilution method. The class given is functional. The conditions noted are these: 504 h. On the technique in general: Agar dilution tests growth on a series of plates holding different concentrations.
For orientation: MIC means the smallest concentration in the dilution series that meets the test's criterion for growth inhibition. Read a high MIC as weaker potency. The term MIC50 denotes the lowest concentration that inhibits either 50% of growth or 50% of the strains tested, depending on the study. Higher therefore signals weaker potency. Broadly, the MIC90 is an inhibitory concentration at the 90% level, which refers to growth in some studies and to a panel of isolates in others. A lower MIC90 goes with higher susceptibility. `COc1c(N2CC3(CC3)[C@](C)(N)C2)c(F)cc2c(=O)c(C(=O)O)cn([C@@H]3C[C@@H]3F)c12` had an MIC of 0.125 µg/mL (≈ 0.298 µM), an MIC50 of 0.125 µg/mL (≈ 0.298 µM) and an MIC90 of 0.5 µg/mL (≈ 1.19 µM).

On to `COc1c(N2CCNC(C)C2)c(F)cc2c(=O)c(C(=O)O)cn(C3CC3)c12` (stereo unspecified) [GATIFLOXACIN], for which the MIC50 came out at 1 µg/mL (≈ 2.66 µM) and the MIC90 came to 2 µg/mL (≈ 5.33 µM).

Take `C[C@H]1COc2c(N3CCN(C)CC3)c(F)cc3c(=O)c(C(=O)O)cn1c23.C[C@H]1COc2c(N3CCN(C)CC3)c(F)cc3c(=O)c(C(=O)O)cn1c23.O` [LEVOFLOXACIN]: the MIC50 was determined as 8 µg/mL and the MIC90 was found to be 16 µg/mL.

Regarding `COc1c(N2C[C@@H]3CCCN[C@@H]3C2)c(F)cc2c(=O)c(C(=O)O)cn(C3CC3)c12` [MOXIFLOXACIN], the MIC50 is 2 µg/mL (≈ 4.98 µM) and the MIC90 was 4 µg/mL (≈ 9.96 µM).

The molecule `CO[C@H]1/C=C/O[C@@]2(C)Oc3c(C)c(O)c4c(O)c(c(/C=N/N5CCN(C)CC5)c(O)c4c3C2=O)NC(=O)/C(C)=C\C=C\[C@H](C)[C@H](O)[C@@H](C)[C@@H](O)[C@@H](C)[C@H](OC(C)=O)[C@@H]1C` [RIFAMPIN] yielded an MIC50 of 128 µg/mL (≈ 156 µM) and an MIC90 greater than 128 µg/mL.

Source of the values: ChEMBL document CHEMBL1255490, “In vitro activities of DC-159a, a novel fluoroquinolone, against Mycobacterium species” (Antimicrob Agents Chemother, 2010).
